Test results published in the supplement of paper PMC11061612.

Experiments:
Assay in all cases: combination Emax (second highest fraction inhibited in the dose matrix, 72 h); higher = more inhibition; extreme values may be limits of the assay
[1] = test system: ASH-3 (Thyroid Gland Carcinoma)
Summary of the method: (§1)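 Bliss excess equals the observed combination effect minus the expected value EA + EB − EA·EB, where EA and EB are the effects of each agent alone. Combination Emax is the second-highest inhibition within the matrix. Inhibition was scaled from CellTiter-Glo 2.0 luminescence, with 0 set by vehicle wells and 1 by blank wells, after 72 hours of two-drug dosing of cells plated in 1536-well plates.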

[2] = test system: BV-173 (Chronic Myelogenous Leukemia)
Summary of the method: as §1

[3] = test system: DG-75 (Burkitt's Lymphoma)
Summary of the method: as §1

[4] = test system: EMC-BAC-2 (Non-Small Cell Lung Carcinoma)
Summary of the method: as §1

GI-1 (Glioblastoma) = test system: GI-1 (Glioblastoma)
Summary of the method: as §1

GOTO (Neuroblastoma) = test system: GOTO (Neuroblastoma)
Summary of the method: as §1

[5] = test system: KINGS-1 (Low Grade Glioma)
Summary of the method: as §1

[6] = test system: KP-2 (Pancreatic Carcinoma)
Summary of the method: as §1

[7] = test system: KYSE-150 (Esophageal Squamous Cell Carcinoma)
Summary of the method: as §1

[8] = test system: KYSE-50 (Esophageal Squamous Cell Carcinoma)
Summary of the method: as §1

[9] = test system: LC4-1 (B-Lymphoblastic Leukemia)
Summary of the method: as §1

[10] = test system: LOU-NH91 (Squamous Cell Lung Carcinoma)
Summary of the method: as §1

[11] = test system: NCI-H2347 (Lung Adenocarcinoma)
Summary of the method: as §1

[12] = test system: NCI-H513 (Other Solid Carcinomas)
Summary of the method: as §1

NH-12 (Neuroblastoma) = test system: NH-12 (Neuroblastoma)
Summary of the method: as §1

[13] = test system: OCUM-1 (Gastric Carcinoma)
Summary of the method: as §1

[14] = test system: OVISE (Ovarian Carcinoma)
Summary of the method: as §1

[15] = test system: PF-382 (T-Lymphoblastic Leukemia)
Summary of the method: as §1

[16] = test system: PFSK-1 (Other Solid Carcinomas)
Summary of the method: as §1

[17] = test system: VMRC-LCD (Lung Adenocarcinoma)
Summary of the method: as §1

Row | Compound | combination Emax [1] | combination Emax [2] | combination Emax [3] | combination Emax [4] | combination Emax (GI-1 (Glioblastoma)) | combination Emax (GOTO (Neuroblastoma)) | combination Emax [5] | combination Emax [6] | combination Emax [7] | combination Emax [8] | combination Emax [9] | combination Emax [10] | combination Emax [11] | combination Emax [12] | combination Emax (NH-12 (Neuroblastoma)) | combination Emax [13] | combination Emax [14] | combination Emax [15] | combination Emax [16] | combination Emax [17]
1 | NC1(C(=O)N[C@@H](CCO)c2ccc(Cl)cc2)CCN(c2ncnc3[nH]ccc23)CC1 [Capivasertib] + Cn1cnc2c(F)c(Nc3ccc(Br)cc3Cl)c(C(=O)NOCCO)cc21 [Selumetinib] (first compound max 10 µM, 7x7, partner max 10 µM) | 0.773 | 0.718 | 0.398 | 0.622 | 0.622 | 0.469 | 0.597 | 0.454 | 0.743 | 0.298 | 0.575 | 0.487 | 0.423 | 0.409 | 0.585 | 0.937 | 0.454 | 0.764 | 0.516 | 0.248
2 | Cc1nc(Nc2ncc(C(=O)Nc3c(C)cccc3Cl)s2)cc(N2CCN(CCO)CC2)n1 [Dasatinib] + CC(=O)Nc1cccc(-n2c(=O)n(C3CC3)c(=O)c3c(Nc4ccc(I)cc4F)n(C)c(=O)c(C)c32)c1 [Trametinib] (first compound max 2 µM, 7x7, partner max 1 µM) | 0.855 | 0.819 | 0.316 | 0.779 | 0.368 | 0.398 | 0.465 | 0.712 | 0.743 | 0.858 | 0.244 | 0.674 | 0.716 | 0.531 | 0.644 | 0.988 | 0.828 | 0.991 | 0.338 | 0.163
3 | COc1cc2ncnc(Nc3ccc(F)c(Cl)c3)c2cc1OCCCN1CCOCC1 [Gefitinib] + CC(C)n1c(=O)n(C)c2cnc3cc(F)c(-c4ccc(OCCCN5CCCCC5)nc4)cc3c21 [AZD1390] (first compound max 10 µM, 7x7, partner max 0.3 µM) | 0.146 | 0.391 | 0.373 | 0.32 | 0.18 | 0.257 | 0.113 | 0.0653 | 0.353 | 0.334 | 0.221 | 0.404 | 0.0611 | 0.268 | 0.121 | 0.148 | 0.197 | 0.323 | 0.265 | 0.0987
4 | CS(=O)(=O)CCNCc1ccc(-c2ccc3ncnc(Nc4ccc(OCc5cccc(F)c5)c(Cl)c4)c3c2)o1 [Lapatinib] + C[C@@H](Oc1cc(-c2cnn(C3CCNCC3)c2)cnc1N)c1c(Cl)ccc(F)c1Cl [Crizotinib] (first compound max 10 µM, 7x7, partner max 10 µM) | 0.908 | 0.94 | 0.92 | 0.909 | 0.909 | 1 | 0.921 | 0.788 | 0.984 | 0.93 | 0.963 | 0.924 | 0.301 | 0.557 | 0.873 | 0.596 | 0.888 | 0.978 | 0.956 | 0.711
5 | CC(=O)c1c(C)c2cnc(Nc3ccc(N4CCNCC4)cn3)nc2n(C2CCCC2)c1=O [Palbociclib] + CC1(C)CCC(CN2CCN(c3ccc(C(=O)NS(=O)(=O)c4ccc(NCC5CCOCC5)c([N+](=O)[O-])c4)c(Oc4cnc5[nH]ccc5c4)c3)CC2)=C(c2ccc(Cl)cc2)C1 [Venetoclax] (first compound max 10 µM, 7x7, partner max 1 µM) | 0.283 | 0.848 | 0.705 | 0.243 | 0.03 | 0.802 | 0.206 | 0.056 | 0.455 | 0.233 | 1 | 0.145 | 0.14 | 0.0783 | 0.592 | 0 | 0.104 | 0.633 | 0.235 | 0.0618
6 | CC(=O)c1c(C)c2cnc(Nc3ccc(N4CCNCC4)cn3)nc2n(C2CCCC2)c1=O [Palbociclib] + Cc1c2c(nn1C)CSCc1cc(n(C)n1)CSc1cc(c3ccccc3c1)OCCCc1c(C(=O)O)n(C)c3c-2c(Cl)ccc13 [AZD5991] (first compound max 10 µM, 7x7, partner max 1 µM) | 0.398 | 0.88 | 0.717 | 0.643 | 0.455 | 0.802 | 0.258 | 0.225 | 0.585 | 0.353 | 0.937 | 0.35 | 0.148 | 0.171 | 0.478 | 0.285 | 0.25 | 0.633 | 0.969 | 0.337
7 | CC(=O)c1c(C)c2cnc(Nc3ccc(N4CCNCC4)cn3)nc2n(C2CCCC2)c1=O [Palbociclib] + Cn1cnc2c(F)c(Nc3ccc(Br)cc3Cl)c(C(=O)NOCCO)cc21 [Selumetinib] (first compound max 10 µM, 7x7, partner max 10 µM) | 0.403 | 0.733 | 0.723 | 0.362 | 0.0397 | 0.819 | 0.232 | 0.376 | 0.684 | 0.357 | 0.614 | 0.213 | 0.38 | 0.305 | 0.592 | 0.944 | 0.271 | 0.761 | 0.138 | 0.123
